This is an account of results in US20050009924A1 (priority 2003, published 2005).

The structures appear in SMILES notation. Where two headings read alike, the source gives them in different places.

Data set [1] has as its system transcriptional activity of hTERT. Put plainly: SEAP reporter assay of hTERT expression, PhTERT-SEAP (hTERT-BJ1). The settings on record: Homo sapiens, hTERT-BJ1, read-out: Relative SEAP activity (%). The format is cell-based, human. As for the experimental part: (§1) Secreted alkaine phosphatase was used as the reporter system to monitor the transcriptional activity of hTERT. Here, about […] each were grown in 96-well plates and incubated at 37° C. for 24 h and changed with fresh media. Varying amounts of drugs were added and cells were incubated for another 24 h. Culture media were collected and heated at 65° C. for 10 min to inactivate heat-labile phosphatases. An equal amount of SEAP buffer (2 M diethanolamine, 1 mM MgCl2, and 20 mM […]) was added to the media and p-nitrophenyl phosphate was added to a final concentration of 12 mM. Absorptions at 405 nm were taken, and the rate of absorption increase is determined.
(§2) Culture media were changed every 3 days. […] The stable clones were selected using G418.

Data set [2] can be described thus: MTT relative viability, PhTERT-SEAP (hTERT-BJ1) cells. The settings on record: human.
Procedure: The tetrazolium reagent (MTT; 3-(4,5-di-methylthiazol)-2,5-diphenyl tetrazolium bromide, USB) was designed to yield a colored formazan upon metabolic reduction by viable cells. Approximately […] cells were plated onto each well of a 96-well plate and incubated in 5% CO2 at 37° C. for 24 h. To assess the in vitro cytotoxicity, each compound was dissolved in DMSO and prepared immediately before the experiments and was diluted into the complete medium before addition to cell cultures. Test compounds were then added to the culture medium for designated various concentrations. After 48 h, an amount of 25 μL of MTT was added to each well, and the samples were incubated at 37° C. for 4 h. A 100 μL solution of lysis buffer containing 20% SDS and 50% N,N-dimethylformamide was added to each well and incubated at 37° C. for another 16 h. The absorbency at 550 nm was measured using an ELISA reader.
Non small lung cancer cells H1299 (telomerase positive) were grown in RPMI 1640 media supplemented with 10% fetal bovine serum, 100 units/mL penicillin and 100 mg/mL streptomycin in a humidified atmosphere with 5% CO2 at 37° C. The hTERT immortalized hTERT-BJ1 (BD Biosciences Clontech)^39 were grown in DMEM media supplemented with 10% fetal calf serum, 100 units/mL penicillin and 100 mg/mL streptomycin, 1 mM sodium pyruvate, and 4 mM I-arginine in a humidified atmosphere with 5% CO2 at 37° C. Culture media were changed every 3 days. […] The stable clones derived from H1299 or hTERT-BJ1 were cultured using conditions that are similar to their parental cells.
A short description of data set [3]: MTT relative viability, PhTERT-SEAP (H1299) cells. The settings on record: human.
The test system of data set [4] is hepatitis B virus transfected hepatoma cell lines, HepG 2.2.15 cells. Put plainly: Cytotoxicity assay, 2.2.15 cells. It is filed as cell-based, human.
Data set [5] concerns transcriptional activity of hTERT. Put plainly: SEAP reporter assay of hTERT expression, PhTERT-SEAP (H1299). The format is cell-based, human. The settings on record: Homo sapiens, NCI-H1299, hTERT-H1299, read-out: Relative SEAP activity (%). The method, then:
as §1, §2

In another data set the test system is human hepatoma G2 cells. Put plainly: Cytotoxicity assay (XTT colorimetric), Hep G2. It is filed as cell-based.
The subject of the next data set is rat glioma C6 cells. Put plainly: Cytotoxicity assay (XTT colorimetric), C6 cells. The format is cell-based.
Where [6] appears, read: Homo sapiens, HepG2.2.15, 48 h of drug exposure.
Setting [7] is: Homo sapiens, HepG2, 48 h of drug exposure.
[8] abbreviates: Rattus norvegicus, C6, 48 h of drug exposure.

Take `CC(C)CNc1cccc2c1C(=O)c1cccc(NCC(C)C)c1C2=O`: the activity at 2.8 µM in data set [1] was 22 ± 18.3%; in data set [5] it was 94 ± 7%. Also, the activity at 28 µM in data set [1] is 22 ± 21.4%; in data set [5] it was 91 ± 2.5%. In addition, the values for the activity at 285 µM in data set [1] and in data set [5] were 29 ± 3.9% and 75 ± 4.1%, respectively. The figures for the viability at 48 h, 285 µM in data set [2] and in data set [3] were 72 ± 3.3% and 80 ± 4.8%, respectively. Moreover, the viability at 48 h, 2.8 µM in data set [2] (hTERT-BJ1 cells) was 110 ± 7.6%; in data set [3], 108 ± 4.8%. Also, the viability at 48 h, 28 µM worked out at 103 ± 3% in data set [2] (hTERT-BJ1 cells) and 106 ± 3.7% in data set [3]. Also, the figures for the 50% inhibitory concentration (IC50) (in data set [4] (setting [6]); in the data set with human hepatoma G2 cells (setting [7]); in the data set with rat glioma C6 cells (setting [8])) were above 20 µM, 14.3 ± 1.54 µM and 12.7 ± 0.37 µM, respectively.

On to `NCCCNc1cccc2c1C(=O)c1cccc(NCCCN)c1C2=O`, for which the activity at 2.8 µM was 103 ± 19.8% in data set [1] and 102 ± 4.9% in data set [5]. For the same compound, the activity at 28 µM in data set [1] worked out at 47 ± 20.5%; in data set [5], 44 ± 7.5%. The activity at 283 µM in data set [1] (283 μM) was 60 ± 15.1%; in data set [5] (283 μM), 38 ± 6%. For the same compound, the figures for the viability at 48 h, 2.8 µM in data set [2] (hTERT-BJ1 cells) and in data set [3] were 85 ± 6.9% and 85 ± 11.5%, respectively. The viability at 48 h, 28 µM was 3 ± 6.9% in data set [2] (hTERT-BJ1 cells) and 32 ± 9.3% in data set [3]. Moreover, the viability at 48 h, 283 µM in data set [3] worked out at 16 ± 2.1%. In addition, the IC50 in data set [4] (setting [6]) stood at 7.48 µM; in the data set on human hepatoma G2 cells (setting [7]), 11.67 ± 0.09 µM; in the data set with rat glioma C6 cells (setting [8]), 12.18 ± 0.04 µM.

Take `COc1cccc2c1C(=O)c1c(O)c3c(c(O)c1C2=O)C[C@@](O)(C(=O)CO)C[C@@H]3O[C@H]1C[C@H](N)[C@H](O)[C@H](C)O1` [Adriamycin, reference compound]: the half-inhibitory concentration (IC50) in data set [4] (setting [6]) was 1.6 µM; in the data set on human hepatoma G2 cells (setting [7]), 0.9 ± 0.01 µM; with rat glioma C6 cells (setting [8]), 1 µM.

`N.N.[Cl][Pt][Cl]` [Cisplatin, reference compound]: the IC50 in data set [4] (48 h of drug exposure) was 2 ± 0.54 µM; in the data set with human hepatoma G2 cells (48 h of drug exposure), 1.48 ± 0.62 µM; with rat glioma C6 cells (48 h of drug exposure) it was above 1 µM.

`CN(C)CCNc1cccc2c1C(=O)c1cccc(NCCN(C)C)c1C2=O` [IVd, 1,5-Bis(2-dimethylaminoethylamino)anthraquinone]: the activity at 2.6 µM in data set [1] (2.6 μM) turned out to be 11 ± 22.4%; in data set [5] (2.6 μM), 103 ± 6%. The activity at 26 µM in data set [1] (26 μM) was -15%; in data set [5] (26 μM), 54 ± 5.9%. The figures for the activity at 262 µM in data set [1] (262 μM) and in data set [5] (262 μM) were -26% and 40 ± 5.9%, respectively. For the same compound, the viability at 48 h, 2.6 µM in data set [2] (hTERT-BJ1 cells) is 92 ± 4.8%; in data set [3] it was 107 ± 9.1%. The viability at 48 h, 26 µM in data set [2] (hTERT-BJ1 cells) was determined as 76 ± 5.9%; in data set [3] it was 81 ± 8.3%. Besides, the results for the viability at 48 h, 262 µM in data set [2] (hTERT-BJ1 cells) and in data set [3] were 7 ± 18.2% and 29 ± 2.6%, respectively. In addition, the IC50 turned out to be 0.13 µM in data set [4] (setting [6]), 0.09 ± 0.01 µM in the data set on human hepatoma G2 cells (setting [7]) and 0.12 µM with rat glioma C6 cells (setting [8]).

Take `CCCCNc1cccc2c1C(=O)c1cccc(NCCCC)c1C2=O` [IVj, 1,5-Bis(butylamino)anthraquinone]: the figures for the activity at 2.8 µM in data set [1] and in data set [5] were 98 ± 27.4% and 106 ± 7.1%, respectively. The activity at 28 µM in data set [1] amounted to 103 ± 27%; in data set [5] it was 105 ± 5.5%. Besides, the activity at 285 µM was 123 ± 22.9% in data set [1] and 98 ± 5.2% in data set [5]. For the same compound, the viability at 48 h, 285 µM in data set [2] came to 75 ± 5.9%; in data set [3], 81 ± 13.9%. Moreover, the viability at 48 h, 2.8 µM in data set [2] (hTERT-BJ1 cells) was found to be 109 ± 9.1%; in data set [3], 102 ± 7%. Besides, the viability at 48 h, 28 µM in data set [2] (hTERT-BJ1 cells) was 99 ± 5.9%; in data set [3] it was 104 ± 9.2%. The IC50 (in data set [4] (setting [6]); in the data set with human hepatoma G2 cells (setting [7]); in the data set with rat glioma C6 cells (setting [8])) was above 20 µM in each case.

With `O=C1c2cccc(NC3CCCC3)c2C(=O)c2cccc(NC3CCCC3)c21` [IVo, 1,5-Bis(cyclopentaneamino)-anthraquinone], the IC50 (in data set [4] (48 h of drug exposure); in the data set on human hepatoma G2 cells (48 h of drug exposure); with rat glioma C6 cells (48 h of drug exposure)) was above 20 µM in each case.

Take `O=C1c2cccc(Nc3ccc(O)cc3)c2C(=O)c2cccc(Nc3ccc(O)cc3)c21` [IVq, 1,5-Bis(phenolamino)-anthraquinone]: the IC50 in data set [4] (48 h of drug exposure) was above 20 µM; with human hepatoma G2 cells (48 h of drug exposure), 4.2 ± 0.76 µM; with rat glioma C6 cells (48 h of drug exposure), 14.21 ± 0.08 µM.

In the case of `CCNc1cccc2c1C(=O)c1c(NCC)cccc1C2=O` [Va, 1,8-Bis(ethylamine)-anthraquinone], the concentration for half-maximal inhibition (IC50) (in data set [4] (48 h of drug exposure); in the data set on human hepatoma G2 cells (48 h of drug exposure); in the data set on rat glioma C6 cells (48 h of drug exposure)) was above 20 µM each time.

As to `CCCNc1cccc2c1C(=O)c1c(NCCC)cccc1C2=O` [Vb, 1,8-Bis(propylamine)-anthraquinone], the IC50 in data set [4] (48 h of drug exposure) came out at 1.06 µM; with human hepatoma G2 cells (48 h of drug exposure), 0.19 µM; in the data set with rat glioma C6 cells (48 h of drug exposure), 0.61 ± 0.01 µM.

`CCCCNc1cccc2c1C(=O)c1c(NCCCC)cccc1C2=O` [Vc]: the concentration for half-maximal inhibition (IC50) (in data set [4] (48 h of drug exposure); in the data set with human hepatoma G2 cells (48 h of drug exposure); with rat glioma C6 cells (48 h of drug exposure)) was above 20 µM in each case.

For `CC(C)CNc1cccc2c1C(=O)c1c(NCC(C)C)cccc1C2=O` [Vd], the IC50 in data set [4] (48 h of drug exposure) is above 20 µM; in the data set on human hepatoma G2 cells (48 h of drug exposure), above 20 µM; in the data set with rat glioma C6 cells (48 h of drug exposure) it was 1.32 ± 0.01 µM.

With `CCCCCCNc1cccc2c1C(=O)c1c(NCCCCCC)cccc1C2=O` [Ve], the IC50 (in data set [4]; in the data set on human hepatoma G2 cells; in the data set on rat glioma C6 cells) was above 20 µM in each case.

For the compound `CC(C)Nc1cccc2c1C(=O)c1c(NC(C)C)cccc1C2=O` [Vf, 1,8-Bis(isopropylamine)-anthraquinone], the IC50 in data set [4] (48 h of drug exposure) was above 20 µM; with human hepatoma G2 cells (48 h of drug exposure), above 20 µM; in the data set on rat glioma C6 cells (48 h of drug exposure), 1.24 ± 0.01 µM.

For the compound `O=C1c2cccc(NCCO)c2C(=O)c2c(NCCO)cccc21` [Vg], the IC50 was above 20 µM in data set [4], above 20 µM with human hepatoma G2 cells and 0.02 ± 0.01 µM in the data set on rat glioma C6 cells.

`O=C1c2cccc(NCCCO)c2C(=O)c2c(NCCCO)cccc21` [Vh]: the IC50 was above 20 µM in data set [4] (48 h of drug exposure), above 20 µM in the data set on human hepatoma G2 cells (48 h of drug exposure) and 1 ± 0.01 µM with rat glioma C6 cells (48 h of drug exposure).

`O=C1c2cccc(NCCCCO)c2C(=O)c2c(NCCCCO)cccc21` [Vi]: the results for the IC50 (in data set [4] (48 h of drug exposure); with human hepatoma G2 cells (48 h of drug exposure); in the data set on rat glioma C6 cells (48 h of drug exposure)) were above 20 µM, 1.65 µM and 0.41 ± 0.02 µM, respectively.

Take `CN(C)CCNc1cccc2c1C(=O)c1c(NCCN(C)C)cccc1C2=O` [Vj]: the IC50 was 8.55 µM in data set [4] (48 h of drug exposure), 0.16 µM in the data set with human hepatoma G2 cells (48 h of drug exposure) and 0.15 ± 0.04 µM with rat glioma C6 cells (48 h of drug exposure).

As to `NCCCNc1cccc2c1C(=O)c1c(NCCCN)cccc1C2=O` [Vk], the 50% inhibitory concentration (IC50) in data set [4] (48 h of drug exposure) is above 20 µM; in the data set on human hepatoma G2 cells (48 h of drug exposure) it was 11.4 ± 0.17 µM; in the data set on rat glioma C6 cells (48 h of drug exposure), above 20 µM.

Take `NCCCCNc1cccc2c1C(=O)c1c(NCCCCN)cccc1C2=O` [Vl]: the values for the 50% inhibitory concentration (IC50) (in data set [4] (48 h of drug exposure); with human hepatoma G2 cells (48 h of drug exposure); with rat glioma C6 cells (48 h of drug exposure)) were above 20 µM, 11.5 ± 0.34 µM and above 20 µM, respectively.

As to `O=C1c2cccc(NC3CCCC3)c2C(=O)c2c(NC3CCCC3)cccc21` [Vn], the IC50 (in data set [4] (48 h of drug exposure); with human hepatoma G2 cells (48 h of drug exposure); in the data set on rat glioma C6 cells (48 h of drug exposure)) was above 20 µM in each case.

In the case of `O=C1c2cccc(NCc3ccccc3)c2C(=O)c2c(NCc3ccccc3)cccc21` [Vo], the IC50 in data set [4] (48 h of drug exposure) was above 20 µM; in the data set with human hepatoma G2 cells (48 h of drug exposure) it was above 20 µM; in the data set with rat glioma C6 cells (48 h of drug exposure), 1.66 ± 0.09 µM.

Regarding `O=C1c2cccc(NCCc3ccccc3)c2C(=O)c2c(NCCc3ccccc3)cccc21` [Vp], the IC50 (in data set [4] (48 h of drug exposure); with human hepatoma G2 cells (48 h of drug exposure); in the data set with rat glioma C6 cells (48 h of drug exposure)) was above 20 µM in each case.
